Columns and labels:
Type in all cases: in vivo
[1] = system: barnyard grass (Echinochloa crus-galli); assay: Pre-emergence application, herbicidal effect on barnyard grass (Table 1); parameters: key: 0: not damaged; 5: completely killed; settings: 20 days after application, score 0-5
In short: (§1)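 Soil treatment after sowing, pre-emergence; wettable powder formulations diluted with water. Greenhouse, 20 d. Score 0 = no damage, 5 = complete kill.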

[2] = system: large crabgrass (Digitaria sanguinalis); assay: Pre-emergence application, herbicidal effect on large crabgrass (Table 1); parameters: key: 0: not damaged; 5: completely killed; settings: 20 days after application, score 0-5
In short: as §1

[3] = system: radish; assay: Pre-emergence application, herbicidal effect on radish (Table 1); parameters: key: 0: not damaged; 5: completely killed; settings: 20 days after application, score 0-5
In short: as §1

[4] = system: redroot pigweed (Amaranthus retroflexus); assay: Pre-emergence application, herbicidal effect on redroot pigweed (Table 1); parameters: key: 0: not damaged; 5: completely killed; settings: 20 days after application, score 0-5
In short: as §1

[5] = system: common purslane (Portulaca oleracea); assay: Pre-emergence application, herbicidal effect on common purslane (Table 1); parameters: key: 0: not damaged; 5: completely killed; settings: 20 days after application, score 0-5
In short: as §1

[6] = system: common lambsquarter (Chenopodium album); assay: Pre-emergence application, herbicidal effect on common lambsquarter (Table 1); parameters: key: 0: not damaged; 5: completely killed; settings: 20 days after application, score 0-5
In short: as §1

[7] = system: rice; assay: Water application, phytotoxicity on rice (Table 2); parameters: key: 0: no effect; 1: very slightly affected; 2: slightly affected; 3: moderately affected; 4: considerably affected; 5: completely killed; settings: 25 days, score 0-5
In short: (§2)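 Paddy-soil pots flooded to paddy conditions; rice transplanted at 3-leaf stage, barnyard grass sown, broad-leaved weeds germinating spontaneously. Test compounds applied as wettable powder to soil under flooded water. Herbicidal effect and rice phytotoxicity scored 0–5 at 25 days after application.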

[8] = system: barnyard grass (Echinochloa crus-galli); assay: Water application, herbicidal effect on barnyard grass (Table 2); parameters: key: 0: not damaged; 5: completely killed; settings: 25 days, score 0-5
In short: as §2

[9] = system: broad-leaved weeds, e.g., monochoria, false pimpernel and toothcup; assay: Water application, herbicidal effect on broad-leaved weeds (Table 2); parameters: key: 0: not damaged; 5: completely killed; settings: 25 days, score 0-5
In short: as §2

Row | SMILES | Herbicidal effect, barnyard grass ([1]; 10 g./a.) | Herbicidal effect, barnyard grass ([1]; 20 g./a.) | Herbicidal effect, barnyard grass ([1]; 40 g./a.) | Herbicidal effect, large crabgrass ([2]; 10 g./a.) | Herbicidal effect, large crabgrass ([2]; 20 g./a.) | Herbicidal effect, large crabgrass ([2]; 40 g./a.) | Herbicidal effect, radish ([3]; 10 g./a.) | Herbicidal effect, radish ([3]; 20 g./a.) | Herbicidal effect, radish ([3]; 40 g./a.) | Herbicidal effect, redroot pigweed ([4]; 10 g./a.) | Herbicidal effect, redroot pigweed ([4]; 20 g./a.) | Herbicidal effect, redroot pigweed ([4]; 40 g./a.) | Herbicidal effect, common purslane ([5]; 10 g./a.) | Herbicidal effect, common purslane ([5]; 20 g./a.) | Herbicidal effect, common purslane ([5]; 40 g./a.) | Herbicidal effect, common lambsquarter ([6]; 10 g./a.) | Herbicidal effect, common lambsquarter ([6]; 20 g./a.) | Herbicidal effect, common lambsquarter ([6]; 40 g./a.) | Phytotoxicity on rice ([7]; 10 g/a) | Phytotoxicity on rice ([7]; 20 g/a) | also measured
1 | CCCCOP(=O)(SCCC)SCC(=O)N1CCCCC1CC (stereo not drawn) [Compound 93] | 5 | 5 | 5 | 5 | 5 | 5 | 0 | 0 | 0 | 4 | 5 | 5 | 4 | 4 | 5 | 4 | 5 | 5 | 0 | 0 | Phytotoxicity on rice ([7]; 40 g/a): 0; Herbicidal effects, barnyard grass ([8]; 10 g/a): 5; Herbicidal effects, barnyard grass ([8]; 20 g/a): 5; Herbicidal effects, barnyard grass ([8]; 40 g/a): 5; Herbicidal effects, broad-leaved weeds ([9]; 10 g/a): 5; Herbicidal effects, broad-leaved weeds ([9]; 20 g/a): 5; Herbicidal effects, broad-leaved weeds ([9]; 40 g/a): 5
2 | CCCCOP(=O)(SCC(=O)N1CCCCC1CC)SC(C)C (stereo not drawn) [Compound 94] | 5 | 5 | 5 | 5 | 5 | 5 | 0 | 0 | 0 | 3 | 4 | 5 | 3 | 4 | 5 | 4 | 4 | 5 | 0 | 0 | Phytotoxicity on rice ([7]; 40 g/a): 0; Herbicidal effects, barnyard grass ([8]; 10 g/a): 5; Herbicidal effects, barnyard grass ([8]; 20 g/a): 5; Herbicidal effects, barnyard grass ([8]; 40 g/a): 5; Herbicidal effects, broad-leaved weeds ([9]; 10 g/a): 5; Herbicidal effects, broad-leaved weeds ([9]; 20 g/a): 5; Herbicidal effects, broad-leaved weeds ([9]; 40 g/a): 5
3 | CCCCOP(=O)(SCCCC)SCC(=O)N1CCCCC1CC (stereo not drawn) [Compound 95] | 4 | 5 | 5 | 4 | 5 | 5 | 0 | 0 | 0 | 2 | 3 | 3 | 2 | 3 | 3 | 2 | 3 | 4 | 0 | 0 | Phytotoxicity on rice ([7]; 40 g/a): 0; Herbicidal effects, barnyard grass ([8]; 10 g/a): 5; Herbicidal effects, barnyard grass ([8]; 20 g/a): 5; Herbicidal effects, barnyard grass ([8]; 40 g/a): 5; Herbicidal effects, broad-leaved weeds ([9]; 10 g/a): 5; Herbicidal effects, broad-leaved weeds ([9]; 20 g/a): 5; Herbicidal effects, broad-leaved weeds ([9]; 40 g/a): 5
4 | CCCCOP(=O)(SCC(=O)N1CCCCC1CC)SC(C)CC (stereo not drawn) [Compound 96] | 4 | 5 | 5 | 5 | 5 | 5 | 0 | 0 | 0 | 3 | 4 | 5 | 3 | 4 | 5 | 3 | 4 | 5 | 0 | 0 | Phytotoxicity on rice ([7]; 40 g/a): 0; Herbicidal effects, barnyard grass ([8]; 10 g/a): 5; Herbicidal effects, barnyard grass ([8]; 20 g/a): 5; Herbicidal effects, barnyard grass ([8]; 40 g/a): 5; Herbicidal effects, broad-leaved weeds ([9]; 10 g/a): 5; Herbicidal effects, broad-leaved weeds ([9]; 20 g/a): 5; Herbicidal effects, broad-leaved weeds ([9]; 40 g/a): 5
5 | CCCCOP(=O)(SCC(=O)N1CCCCC1CC)SCC(C)C (stereo not drawn) [Compound 97] | 4 | 5 | 5 | 4 | 5 | 5 | 0 | 0 | 0 | 3 | 4 | 5 | 4 | 4 | 5 | 3 | 4 | 5 | 0 | 0 | Phytotoxicity on rice ([7]; 40 g/a): 0; Herbicidal effects, barnyard grass ([8]; 10 g/a): 5; Herbicidal effects, barnyard grass ([8]; 20 g/a): 5; Herbicidal effects, barnyard grass ([8]; 40 g/a): 5; Herbicidal effects, broad-leaved weeds ([9]; 10 g/a): 5; Herbicidal effects, broad-leaved weeds ([9]; 20 g/a): 5; Herbicidal effects, broad-leaved weeds ([9]; 40 g/a): 5
6 | CCCCCSP(=O)(OCCCC)SCC(=O)N1CCCCC1CC (stereo not drawn) [Compound 98] | 5 | 5 | 5 | 5 | 5 | 5 | 0 | 0 | 0 | 4 | 5 | 5 | 4 | 5 | 5 | 5 | 5 | 5 | 0 | 0 | Phytotoxicity on rice ([7]; 40 g/a): 0; Herbicidal effects, barnyard grass ([8]; 10 g/a): 5; Herbicidal effects, barnyard grass ([8]; 20 g/a): 5; Herbicidal effects, barnyard grass ([8]; 40 g/a): 5; Herbicidal effects, broad-leaved weeds ([9]; 10 g/a): 5; Herbicidal effects, broad-leaved weeds ([9]; 20 g/a): 5; Herbicidal effects, broad-leaved weeds ([9]; 40 g/a): 5

Reference: patent US4015974A, “Amido phosphorothiolates” (priority 1972, dated 1977)
